Results on ten compounds are retold here after patent US10213427B2 (Incyte Corporation, priority 2010, dated 2019).

Where only a bound is given, the exact number is not on record here.

For orientation: IC50 means the midpoint of a concentration-inhibition curve. A high value points to weaker potency.

The test deals with FGFR3 enzyme (Millipore) (Homo sapiens (Human), UniProt P22607). As to the kind of experiment: FGFR3 Enzymatic Assay. The following applies: FRET peptide phosphorylation, 140 μM ATP. The class given is biochemical. The method in brief: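 FGFR3 preincubated 5-10 min with serially diluted inhibitor in 50 mM HEPES pH 7.5, 10 mM MgCl2, 1 mM EGTA, 5 mM DTT, then reacted 1 h at 25 °C. Peptide phosphorylation detected by FRET; IC50 from variable-slope sigmoidal fit.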
Sequence of FGFR3 enzyme (Millipore) (P22607 23-806): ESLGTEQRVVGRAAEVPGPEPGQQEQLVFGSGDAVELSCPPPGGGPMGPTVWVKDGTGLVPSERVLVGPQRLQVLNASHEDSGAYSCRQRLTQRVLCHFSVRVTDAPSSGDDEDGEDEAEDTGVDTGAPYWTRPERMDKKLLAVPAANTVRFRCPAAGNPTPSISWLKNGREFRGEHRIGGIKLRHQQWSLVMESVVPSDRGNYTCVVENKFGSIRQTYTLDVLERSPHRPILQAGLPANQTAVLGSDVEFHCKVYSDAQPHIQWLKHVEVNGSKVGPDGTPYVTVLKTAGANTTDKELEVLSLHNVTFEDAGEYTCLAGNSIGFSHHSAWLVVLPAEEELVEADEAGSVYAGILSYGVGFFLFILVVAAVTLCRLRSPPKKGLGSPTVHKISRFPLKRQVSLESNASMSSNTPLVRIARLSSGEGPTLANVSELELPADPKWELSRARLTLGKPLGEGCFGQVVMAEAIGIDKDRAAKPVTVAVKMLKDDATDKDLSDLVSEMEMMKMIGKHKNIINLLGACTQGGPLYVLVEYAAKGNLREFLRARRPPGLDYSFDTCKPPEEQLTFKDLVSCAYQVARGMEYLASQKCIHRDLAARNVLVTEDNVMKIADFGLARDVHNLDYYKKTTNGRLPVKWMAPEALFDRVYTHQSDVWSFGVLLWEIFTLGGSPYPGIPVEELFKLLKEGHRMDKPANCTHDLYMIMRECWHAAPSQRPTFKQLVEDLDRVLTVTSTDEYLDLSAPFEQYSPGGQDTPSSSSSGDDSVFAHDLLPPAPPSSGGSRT
The compound `Cn1ccc(S(=O)(=O)N2CCC(n3cc(-c4cnn5c(-c6cccc(NC(=O)NCC(F)(F)F)c6)cnc5c4)cn3)CC2)n1` [Example 31, N-{3-[7-(1-{1-[(1-methyl-1H-pyrazol-3-yl)sulfonyl]piperidin-4-yl}-1H-pyrazol-4-yl)imidazo[1,2-b]pyridazin-3-yl]phenyl}-N′-(2,2,2-trifluoroethyl)urea] came in with an IC50 of less than 10 nM. The result for `O=C(NCC(F)(F)F)Nc1cccc(-n2cnc3cc(-c4ccc(C(=O)NCc5cccnc5)cc4)ccc32)c1` [Example 12, N-(Pyridin-3-ylmethyl)-4-{1-[3-({[(2,2,2-trifluoroethyl)amino]carbonyl}amino)phenyl]-1H-benzimidazol-5-yl}benzamide] reads less than 10 nM; that for `CC(C(=O)NCc1nccn1C)c1ccc(-c2ccc3c(c2)ncn3-c2cccc(NC(=O)NCC(F)(F)F)c2)cc1` (stereo not shown) [Example 20, N-[(1-Methyl-1H-imidazol-2-yl)methyl]-2-(4-{1-[3-({[(2,2,2-trifluoroethyl)amino]carbonyl}amino)phenyl]-1H-benzimidazol-5-yl}phenyl)propanamide], less than 10 nM. The result for `Cc1oncc1S(=O)(=O)N1CC(CC#N)(n2cc(-c3cnn4c(-c5cccc(NC(=O)NCC(F)(F)F)c5)cnc4c3)cn2)C1` [Example 74, N-{3-[7-(1-{3-(Cyanomethyl)-1-[(5-methylisoxazol-4-yl)sulfonyl]azetidin-3-yl}-1H-pyrazol-4-yl)imidazo[1,2-b]pyridazin-3-yl]phenyl}-N′-(2,2,2-trifluoroethyl)urea] reads less than 10 nM; that for `CC(C(=O)N1CCCC1)c1ccc(-c2ccc3c(c2)ncn3-c2cccc(NC(=O)NCC(F)(F)F)c2)cc1` (stereo not shown) [Example 17, N-(3-{5-[4-(1-Methyl-2-oxo-2-pyrrolidin-1-ylethyl)phenyl]-1H-benzimidazol-1-yl}phenyl)-N′-(2,2,2-trifluoroethyl)urea], less than 10 nM; that for `CC(C(=O)NCCN1CCCC1=O)n1cc(-c2cnn3c(-c4cccc(NC(=O)NCC(F)(F)F)c4)cnc3c2)cn1` (stereo not shown) [Example 62, N-[2-(2-Oxopyrrolidin-1-yl)ethyl]-2-(4-{3-[3-({[(2,2,2-trifluoroethyl)amino]carbonyl}amino)phenyl]imidazo[1,2-b]pyridazin-7-yl}-1H-pyrazol-1-yl)propanamide], less than 10 nM. Next, `CC(C(=O)N(C)C1CCOCC1)n1cc(-c2cnn3c(-c4cccc(NC(=O)NCC(F)(F)F)c4)cnc3c2)cn1` (stereo not shown) [Example 59, N-Methyl-N-(tetrahydro-2H-pyran-4-yl)-2-(4-{3-[3-({[(2,2,2-trifluoroethyl)amino]carbonyl}amino)phenyl]imidazo[1,2-b]pyridazin-7-yl}-1H-pyrazol-1-yl)propanamide]: less than 10 nM; `CC(C(=O)N1CC[C@H](O)C1)c1ccc(-c2cnn3c(-c4cccc(NC(=O)NCC(F)(F)F)c4)cnc3c2)cc1` (stereo partly drawn) [Example 101, N-{3-[7-(4-{2-[(3S)-3-Hydroxypyrrolidin-1-yl]-1-methyl-2-oxoethyl}phenyl)imidazo[1,2-b]pyridazin-3-yl]phenyl}-N′-(2,2,2-trifluoroethyl)urea]: less than 10 nM. `CC(C(=O)N1CCC(C#N)C1)c1ccc(-c2ccc3c(c2)ncn3-c2cccc(NC(=O)NCC(F)(F)F)c2)cc1` (stereo not shown) [Example 19, N-[3-(5-{4-[2-(3-Cyanopyrrolidin-1-yl)-1-methyl-2-oxoethyl]phenyl}-1H-benzimidazol-1-yl)phenyl]-N′-(2,2,2-trifluoroethyl)urea] had an IC50 of less than 10 nM.

`CN(C)CC(=O)N1CC(CC#N)(n2cc(-c3cnn4c(-c5cccc(NC(=O)NCC(F)(F)F)c5)cnc4c3)cn2)C1` [Example 76, N-{3-[7-(1-{3-(Cyanomethyl)-1-[(dimethylamino)acetyl]azetidin-3-yl}-1H-pyrazol-4-yl)imidazo[1,2-b]pyridazin-3-yl]phenyl}-N′-(2,2,2-trifluoroethyl)urea] returned an IC50 of less than 10 nM.
